Read-outs that look alike come from different tables or passages of the source.
Key:
Type in all cases: in vivo
Phakopsora pachyrhizi [1] = assay: Test G: Compound 41 or 63 alone and in mixtures on soybean seedlings, Asian soybean rust, Colby synergy; conditions: for pest or weed control at 0.346 ppm: Compound 41 0.346 ppm alone; for pest or weed control at 0.764 ppm: Compound 41 0.764 ppm alone
Description: The general protocol for preparing test compositions for TEST G was as follows: Compound 41, Compound 63, N-(2,2,2-trifluoroethyl)-2-[[4-[5-(trifluoromethyl)-1,2,4-oxadiazol-3-yl]phenyl]methyl]-4-oxazolecarboxamide (b54.11a), ethyl 1-[[4-[[(1Z)-2-ethoxy-3,3,3-trifluoro-1-propen-1-yl]oxy]phenyl]methyl]-1H-pyrazole-4-carboxylate (b54.11c), ethyl 1-[[4-[[2-(trifluoromethyl)-1,3-dioxolan-2-yl]methoxy]phenyl]methyl]-1H-pyrazole-4-carboxylate (b54.11d), azoxystrobin, benzovindiflupyr, bixafen, chlorothalonil, cyproconazole, epoxiconazole, fenpropidin, fenpropimorph, fluindapyr, flutriafol, fluxapyroxad, inpyrfluxam, picoxystrobin, prothioconazole, pydiflumetofen, tebuconazole and trifloxystrobin were obtained as unformulated, technical-grade materials. Copper hydroxide and mancozeb was obtained as a formulated product marketed under the trademarks KOCIDE 3000 and MANZATE, respectively. Unformulated materials were first dissolved in acetone and then suspended at the desired concentration (in ppm) in acetone and purified water (50/50 mix by volume) containing 250 ppm of the surfactant Trem® 014 (polyhydric alcohol esters). Formulated materials were dispersed in sufficient water to give the desired concentration, and neither organic solvent nor surfactant was added to the suspension. The resulting test mixtures were then used in TEST G. The tests were run on four individual plants and the results reported as the mean average of the four plants.
The presence of a synergistic effect between two active ingredients was established with the aid of the Colby equation (see Colby, S. R. “Calculating Synergistic and Antagonistic Responses of Herbicide Combinations”, Weeds, (1967), 15, 20-22):
Using the method of Colby, the presence of a synergistic interaction between two active ingredients is established by first calculating the predicted activity, p, of the mixture based on activities of the two components applied alone. If p is lower than the experimentally established effect, synergism has occurred. In the equation above, A is the fungicidal activity in percentage control of one component applied alone at rate x. The B term is the fungicidal activity in percentage control of the second component applied at rate y. The equation estimates p, the expected fungicidal activity of the mixture of A at rate x with B at rate y if their effects are strictly additive and no interaction has occurred.
(§1) The test mixture was sprayed to the point of run-off on soybean seedlings. The following day the seedlings were inoculated with a spore suspension of Phakopsora pachyrhizi (the causal agent of Asian soybean rust) and incubated in a saturated atmosphere at 22° C. for 24 h and then moved to a growth chamber at 22° C. for 8 days, after which time visual disease ratings were made.
Results for TEST G are given below in Tables B-1 through J-1 for Compound 41, and Tables B-2 through J-2 for Compound 63. Each table corresponds to a set of evaluations performed together at the same time. In each table, a rating of 100 indicates 100% disease control and a rating of 0 indicates no disease control (relative to the controls). Columns labeled “Obsd” indicate the average of results observed from test run on four individual plants. Columns labeled “Exp” indicate the expected value for each treatment mixture using the Colby equation.

Phakopsora pachyrhizi [2] = assay: Test D: preventive spray on soybean seedlings, Asian soybean rust; conditions: Rate 10 ppm; for pest or weed control at 10 ppm: Phakopsora pachyrhizi, 216 h, read-out: Test D disease control rating
Description: (§2) General protocol for preparing test suspensions for Tests A-F: the test compounds were first dissolved in acetone in an amount equal to 3% of the final volume and then suspended at the desired concentration (in ppm) in acetone and purified water (50/50 mix by volume) containing 250 ppm of the surfactant PEG400 (polyhydric alcohol esters). The resulting test suspensions were then used in Tests A-F.
as §1, with “solution” for “mixture”
(§3) A rating of 100 indicates 100% disease control and a rating of 0 indicates no disease control (relative to the controls). A dash (-) indicates the compound was not tested.

[3] = tested on: Puccinia recondita f. sp. tritici; assay: Test B: preventive spray on wheat seedlings, wheat leaf rust; conditions: Rate 10 ppm; for pest or weed control at 10 ppm: Puccinia recondita, 192 h, read-out: Test B disease control rating
Description: as §2
The test solution was sprayed to the point of run-off on wheat seedlings. The following day the seedlings were inoculated with a spore suspension of Puccinia recondita f. sp. tritici (the causal agent of wheat leaf rust) and incubated in a saturated atmosphere at 20° C. for 24 h, and then moved to a growth chamber at 20° C. for 7 days, after which time disease ratings were made.
as §3

[4] = Phakopsora pachyrhizi, Table B-1, read-out: Test G Obsd
[5] = Phakopsora pachyrhizi, Table C-1, read-out: Test G Obsd

OC(Cn1cncn1)(c1ccc(F)cc1)c1ccccc1F (stereo not shown) [Flutriafol, flutriafol]
pest or weed control at 544.265 ppm (Phakopsora pachyrhizi [1]; Phakopsora pachyrhizi, flutriafol alone 544.265 ppm, read-out: Test G Obsd): 13% | pest or weed control at 1124.02 ppm (Phakopsora pachyrhizi [1]; Phakopsora pachyrhizi, flutriafol alone 1124.021 ppm, read-out: Test G Obsd): 52%

C[C@@H]1CC(C)(C)c2cccc(NC(=O)c3cn(C)nc3C(F)F)c21 [Inpyrfluxam, inpyrfluxam]
Test G Obsd (Phakopsora pachyrhizi [1]; inpyrfluxam alone 0.448 ppm): 56% | Test G Obsd (Phakopsora pachyrhizi [1]; inpyrfluxam alone 1.059 ppm): 79%

Fc1ccc([C@]2(Cn3cncn3)O[C@H]2c2ccccc2Cl)cc1 (racemic) [Epoxiconazole, epoxiconazole]
pest or weed control at 46.795 ppm (Phakopsora pachyrhizi [1]; Phakopsora pachyrhizi, epoxiconazole alone 46.795 ppm, read-out: Test G Obsd): 23% | pest or weed control at 89.631 ppm (Phakopsora pachyrhizi [1]; Phakopsora pachyrhizi, epoxiconazole alone 89.631 ppm, read-out: Test G Obsd): 70%

CC(Cc1ccc(C(C)(C)C)cc1)CN1C[C@@H](C)O[C@@H](C)C1 (stereo partly shown) [Fenpropimorph, fenpropimorph]
pest or weed control at 242.823 ppm (Phakopsora pachyrhizi [1]; Phakopsora pachyrhizi, fenpropimorph alone 242.823 ppm, read-out: Test G Obsd): 33% | pest or weed control at 458.587 ppm (Phakopsora pachyrhizi [1]; Phakopsora pachyrhizi, fenpropimorph alone 458.587 ppm, read-out: Test G Obsd): 44%

CO/C=C(/C(=O)OC)c1ccccc1COc1cccc(C(F)(F)F)n1 [Picoxystrobin, picoxystrobin]
Test G Obsd (Phakopsora pachyrhizi [1]; picoxystrobin alone 20.596 ppm): 63% | Test G Obsd (Phakopsora pachyrhizi [1]; picoxystrobin alone 33.856 ppm): 79% | Test G Obsd (Phakopsora pachyrhizi [1]; picoxystrobin alone 33.865 ppm): 79%

CC(C1CC1)C(O)(Cn1cncn1)c1ccc(Cl)cc1 (stereo not shown) [Cyproconazole, cyproconazole]
pest or weed control at 37.333 ppm (Phakopsora pachyrhizi [1]; Phakopsora pachyrhizi, cyproconazole alone 37.333 ppm, read-out: Test G Obsd): 44% | pest or weed control at 64.883 ppm (Phakopsora pachyrhizi [1]; Phakopsora pachyrhizi, cyproconazole alone 64.883 ppm, read-out: Test G Obsd): 68%

CON(C(=O)c1cn(C)nc1C(F)F)C(C)Cc1c(Cl)cc(Cl)cc1Cl (stereo not shown) [Pydiflumetofen, pydiflumetofen]
Test G Obsd (Phakopsora pachyrhizi [1]; pydiflumetofen alone 41.364 ppm): 49% | Test G Obsd (Phakopsora pachyrhizi [1]; pydiflumetofen alone 70.950 ppm): 0% | Test G Obsd (Phakopsora pachyrhizi [1]; pydiflumetofen alone 128.793 ppm): 36% | Test G Obsd (Phakopsora pachyrhizi [1]; pydiflumetofen alone 135.850 ppm): 73%

Cn1cc(C(=O)Nc2ccc(F)cc2-c2ccc(Cl)c(Cl)c2)c(C(F)F)n1 [Bixafen, bixafen]
Test G Obsd (Phakopsora pachyrhizi [1]; Table C-1, bixafen 11.327 ppm alone): 54% | Test G Obsd (Phakopsora pachyrhizi [1]; Table C-1, bixafen 19.525 ppm alone): 55% | Test G Obsd (Phakopsora pachyrhizi [1]; Table C-2, bixafen 11.327 ppm alone): 54% | Test G Obsd (Phakopsora pachyrhizi [1]; Table C-2, bixafen 19.525 ppm alone): 55%

OC(Cc1ccccc1Cl)(Cn1nc[nH]c1=S)C1(Cl)CC1 (stereo not shown) [Prothioconazole, prothioconazole]
pest or weed control at 10.165 ppm (Phakopsora pachyrhizi [1]; Phakopsora pachyrhizi, prothioconazole alone 10.165 ppm, read-out: Test G Obsd): 7% | pest or weed control at 16.339 ppm (Phakopsora pachyrhizi [1]; Phakopsora pachyrhizi, prothioconazole alone 16.339 ppm, read-out: Test G Obsd): 65%

CC1CC(C)(C)c2c(F)ccc(NC(=O)c3cn(C)nc3C(F)F)c21 (stereo not shown) [Fluindapyr, fluindapyr]
Test G Obsd (Phakopsora pachyrhizi [1]; Table C-1, fluindapyr 8.820 ppm alone): 61% | Test G Obsd (Phakopsora pachyrhizi [1]; Table C-1, fluindapyr 15.230 ppm alone): 79% | Test G Obsd (Phakopsora pachyrhizi [1]; Table C-2, fluindapyr 8.820 ppm alone): 61% | Test G Obsd (Phakopsora pachyrhizi [1]; Table C-2, fluindapyr 15.230 ppm alone): 79%

N#Cc1c(Cl)c(Cl)c(Cl)c(C#N)c1Cl [Chlorothalonil, chlorothalonil]
pest or weed control at 138.129 ppm (Phakopsora pachyrhizi [1]; Phakopsora pachyrhizi, chlorothalonil alone 138.129 ppm, read-out: Test G Obsd): 59% | pest or weed control at 222.081 ppm (Phakopsora pachyrhizi [1]; Phakopsora pachyrhizi, chlorothalonil alone 222.081 ppm, read-out: Test G Obsd): 85%

CO/C=C(/C(=O)OC)c1ccccc1Oc1cc(Oc2ccccc2C#N)ncn1 [Azoxystrobin, azoxystrobin]
Test G Obsd (Phakopsora pachyrhizi [1]; azoxystrobin alone 95.873 ppm): 70% | Test G Obsd (Phakopsora pachyrhizi [1]; azoxystrobin alone 169.226 ppm): 90%

CC(Cc1ccc(C(C)(C)C)cc1)CN1CCCCC1 (stereo not shown) [Fenpropidin, fenpropidin]
pest or weed control at 78.393 ppm (Phakopsora pachyrhizi [1]; Phakopsora pachyrhizi, fenpropidin alone 78.393 ppm, read-out: Test G Obsd): 45% | pest or weed control at 161.74 ppm (Phakopsora pachyrhizi [1]; Phakopsora pachyrhizi, fenpropidin alone 161.740 ppm, read-out: Test G Obsd): 68%

COC(=O)NCc1cc(-c2ccn(-c3c(F)cc(C4CC4)cc3F)n2)ccc1C [Compound 41, methyl N-[[5-[1-(4-cyclopropyl-2,6-difluorophenyl)-1H-pyrazol-3-yl]-2-methylphenyl]methyl]carbamate]
pest or weed control at 0.346 ppm (Phakopsora pachyrhizi [1]; [4]): 29% | pest or weed control at 0.764 ppm (Phakopsora pachyrhizi [1]; [4]): 62% | pest or weed control at 0.346 ppm (Phakopsora pachyrhizi [1]; [5]): 19% | pest or weed control at 0.764 ppm (Phakopsora pachyrhizi [1]; [5]): 45%

CC(C)(C)C(O)(CCc1ccc(Cl)cc1)Cn1cncn1 (stereo not shown) [Tebuconazole, tebuconazole]
pest or weed control at 486.921 ppm (Phakopsora pachyrhizi [1]; Phakopsora pachyrhizi, tebuconazole alone 486.921 ppm, read-out: Test G Obsd): 30% | pest or weed control at 841.166 ppm (Phakopsora pachyrhizi [1]; Phakopsora pachyrhizi, tebuconazole alone 841.166 ppm, read-out: Test G Obsd): 55%

CON=C(C(=O)OC)c1ccccc1CON=C(C)c1cccc(C(F)(F)F)c1 [Trifloxystrobin, trifloxystrobin]
pest or weed control at 20.511 ppm (Phakopsora pachyrhizi [1]; Phakopsora pachyrhizi, trifloxystrobin alone 20.511 ppm, read-out: Test G Obsd): 46% | pest or weed control at 35.31 ppm (Phakopsora pachyrhizi [1]; Phakopsora pachyrhizi, trifloxystrobin alone 35.310 ppm, read-out: Test G Obsd): 76%

COC(=O)NCc1cc(-c2ccn(-c3c(F)cc([N+](=O)[O-])cc3Cl)n2)ccc1C [compound 37]
Test D disease control rating (Phakopsora pachyrhizi [2]): 0% | Test B disease control rating [3]: 26%

C=Cc1cc(F)c(-n2ccc(-c3ccc(C)c(CNC(=O)OC)c3)n2)c(F)c1 [compound 146]
Test D disease control rating (Phakopsora pachyrhizi [2]): 100% | Test B disease control rating [3]: 100%

COC(=O)NCc1cc(-c2cn(-c3c(OC)cc(OC)cc3OC)nn2)ccc1C [compound 127]
Test D disease control rating (Phakopsora pachyrhizi [2]): 0% | Test B disease control rating [3]: 0%

COC(=O)NCc1cc(-c2ccn(-c3c(F)cc(N4CCOCC4)cc3F)n2)ccc1C [compound 149]
Test D disease control rating (Phakopsora pachyrhizi [2]): 99% | Test B disease control rating [3]: 83%

CCc1cc(F)c(-n2ccc(-c3ccc(C)c(CNC(=O)OC)c3)n2)c(F)c1 [compound 144]
Test D disease control rating (Phakopsora pachyrhizi [2]): 100% | Test B disease control rating [3]: 100%

COC(=O)NCc1cc(-c2ccn(-c3c(C)cc(Br)cc3C)n2)ccc1C [compound 48]
Test D disease control rating (Phakopsora pachyrhizi [2]): 99% | Test B disease control rating [3]: 68%

COC(=O)NCc1cc(-c2ccn(-c3c(F)cc(SC)cc3SC)n2)ccc1C [compound 28]
Test D disease control rating (Phakopsora pachyrhizi [2]): 100% | Test B disease control rating [3]: 0%

COC(=O)NCc1cc(-c2ccn(-c3c(F)cc(OCC(F)(F)F)cc3F)n2)ccc1C [compound 22]
Test D disease control rating (Phakopsora pachyrhizi [2]): 100% | Test B disease control rating [3]: 99%

COC(=O)NNc1cc(-c2ccn(-c3c(F)cc(C(F)(F)F)cc3F)n2)ccc1C [Compound 156]
pest or weed control at 10 ppm (Phakopsora pachyrhizi [2]): 54% | pest or weed control at 10 ppm [3]: 85%

COC(=O)NCc1cc(-c2ccn(-c3c(F)cccc3I)n2)ccc1C [compound 45]
Test D disease control rating (Phakopsora pachyrhizi [2]): 100% | Test B disease control rating [3]: 0%

CCC(C)c1cc(F)c(-n2ncc(-c3ccc(C)c(CNC(=O)OC)c3)n2)c(F)c1 (stereo not shown) [Compound 139, methyl N-[[5-[2-[2,6-difluoro-4-(1-methylpropyl)phenyl]-2H-1,2,3-triazol-4-yl]-2-methylphenyl]methyl]carbamate]
pest or weed control at 10 ppm (Phakopsora pachyrhizi [2]): 100% | pest or weed control at 10 ppm [3]: 99%

COC(=O)NCc1cc(-c2ccn(-c3c(F)cc(C4OCCO4)cc3F)n2)ccc1C [compound 133]
Test D disease control rating (Phakopsora pachyrhizi [2]): 100% | Test B disease control rating [3]: 99%

COC(=O)NCc1cc(-c2ccn(-c3c(F)cccc3Cl)n2)ccc1C [compound 47]
Test D disease control rating (Phakopsora pachyrhizi [2]): 100% | Test B disease control rating [3]: 74%

— US20230165251A1, “SUBSTITUTED TOLYL FUNGICIDES AND THEIR MIXTURES” (FMC Corporation, priority 2020, published 2023)
